Assay results: publication PMC8776337, “Peptides Derived from Vascular Endothelial Growth Factor B Show Potent Binding to Neuropilin‐1” (Chembiochem, 2021)
Several values for one entry are separate records, joined by “and”; a condition that tells them apart may be missing. Equal entries are not always repeated. Where two headings read alike, the source gives them in different places. Positions of bridges follow the written chain, without caps; N, C: chain ends. Residues, ends and D or L forms follow the SMILES beside them. No end group written: not given here. *: point of attachment. Palmitoyl = CCCCCCCCCCCCCCCC(=O)*; Hpt = not defined here

T1: NRP1‐b1 (Homo sapiens, UniProt O14786)
T1 construct: the immobilized b1 domain of NRP1 (NRP1‐b1); poly-histidine (TEV-cleavable) (cleaved yes); made in house; host or cells: E. coli Rosetta (DE3)
T1 sequence (O14786 275-424 limits assumed): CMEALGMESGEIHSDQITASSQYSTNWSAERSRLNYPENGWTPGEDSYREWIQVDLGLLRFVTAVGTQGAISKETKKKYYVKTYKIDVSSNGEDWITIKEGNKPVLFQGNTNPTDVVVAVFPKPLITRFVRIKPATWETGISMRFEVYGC

T2: b1 domain of neuropilin‐1 (NRP1‐b1) (human, UniProt O14786 273-427)
T2 construct: neuropilin-1, human, b1 domain; also called NRP1‐b1 domain; NRP1 b1 domain; source: E. coli Rosetta (DE3), purified (HisTrap, TEV cleavage, Superdex 75, SP FF ion exchange)
T2 sequence: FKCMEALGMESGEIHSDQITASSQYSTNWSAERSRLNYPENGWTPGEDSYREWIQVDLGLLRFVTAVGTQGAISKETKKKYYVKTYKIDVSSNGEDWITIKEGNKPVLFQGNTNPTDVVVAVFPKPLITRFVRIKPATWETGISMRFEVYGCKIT


Columns and labels:
[1] = target: T1, NRP1‐b1; assay: SPR binding of peptides to immobilised NRP1-b1; details: for Receptor occupancy: immobilised NRP1-b1
Excerpt: We then designed four additional peptides with added lipid chains (Figures 3 and 4). We investigated the effect of lipidation on the N‐terminus (MGC0171 and MGC0174) and on the side chain of a lysine in close proximity to the C‐terminus (MGC0172 and MGC0173) as shown (Figure 5). For the SPR analysis of the lipidated peptides we fitted data to a two‐state reaction model to account for the nonspecific binding of the palmitoyl side chains. Since the model assumes two binding events it provides two association (k a) and dissociation (k d) rates, and the overall equilibrium dissociation constant is calculated using the equation: KD=KD1(1+KD2), in which KD1 and KD2 are obtained as […]. The inverse of the dissociation rate corresponds to the residence time. […] The lipidated peptides were also tested for inhibition of VEGF‐A165 binding to NRP1 in a cell‐based assay (Figure 8).
Surface plasmon resonance: SPR measurements were performed using either Biacore T200 or Biacore 4000 at a constant temperature of 25 °C. All sensor chips, stock buffers, and immobilisation reagents were purchased from GE Healthcare/Cytvia and were prepared according to the manufacturer's instructions.
Chip preparation: PBS containing 0.05 % surfactant P20 was used as the running buffer during immobilisation. Proteins were immobilised onto a CM5 chip using random amine coupling following a standard procedure using the conditions specified in Table 2. A flow cell upstream of the treated flow cell was used as a reference which allowed removal of non‐specific binding to the chip.
Kinetic measurements of peptides: Peptides were injected over immobilized NRP1‐b1 for 60 s, followed by 120 or 180 s dissociation. The surface was regenerated with 1 M NaCl between injections. The SPR response curves were fit to a binding model to obtain association (ka ) and dissociation (kd ) rates which were then converted into equilibrium dissociation constant (KD ) and residence time. For a 1 : 1 binding model […] and for a two‐state binding model KD=K1(1+K2). Residence time was calculated as 1/kd .

[2] = target: T3, bt‐VEGF‐A165 binding to NRP1 in HUVEC cells (Homo sapiens, UniProt O14786); assay: Cell based binding assay, inhibition of bt-VEGF-A165 binding to NRP1; details: for IC50: 4 °C, 2 h, streptavidin-horseradish peroxidase detection; for HS (of the inhibition curve of bt‐VEGF‐A165 binding to NRP1): HUVEC cells
T3 construct: expressed in transfected cells
Description: A) N‐terminal palmitoyl VEGF‐B167 derived peptide MGC0174. B) Lysine palmitoyl peptide MGC0173. C) N‐terminal palmitoyl VEGF‐A165 derived peptide MGC0171. D) Lysine VEGF‐A165 palmitoyl peptide MGC0172.
Cell based binding assay for bt‐VEGF binding to NRP1‐b1: A flat‐bottomed 96 well plate was coated with 100 μL 10 μg/mL Poly‐D‐lysine (110 μL in 10890 μL PBS) and incubated for 1 hour at R.T. DU145 cells were seeded at a concentration of 20,000 DU145 cells/well in DMEM with 10 % FBS and incubated for 4 hours. Cells were then infected with 0.3 μL per well of adenovirus expressing NRP1 (stock at 1×1012 vp/mL) and incubated for 40 hours. The media was removed followed by washing cells twice in 200 μL of PBS per well. The plate was placed on ice and 50 μL of binding medium was added per well for total binding. Next, 50 μL of 100‐fold excess (100×btVEGF‐A165) of unlabelled‐VEGF (diluted in binding medium) was added per well for non‐specific binding. Peptides (50 μL) at the indicated concentrations were diluted in binding medium and added to specified wells. bt‐VEGF (50 μL of 4 nM; diluted in binding medium) was added per well for both total and non‐specific binding and samples. The plate was incubated at 4 °C for 2 hours. The plate was then placed on ice and the medium was removed followed by gently washing the cells 3 times in 200 μL of PBS per well.
Streptavidin‐horseradish peroxidase (100 μL; dilute to the working concentration specified on the vial label using PBS+1 % BSA=1 : 200) was added to each well. The plate was sealed and incubated for 30 minutes at room temperature. Three more washes with 200 μL PBS were done. Then, 100 μL of substrate solution was added to each well (protected from light). Colour Reagent A and B were mixed together in equal volumes within 15 minutes of use. The plate was sealed and incubated for 20 minutes at room temperature. Stop solution (50 μL) was added to each well ensuring even mixing. The plate was read using Tecan Genios plate reader using a 450 nm cut‐off filter and also with a reference 595 nm cut‐off filter. Nonspecific binding was determined in the absence of NP‐1 coated on the microplate.

[3] = Peptide stability in mouse plasma; format: in vitro ADME; details: mouse plasma pH 7.4, 37 °C, LC-MS/MS, triplicate (n=1); for Stability in mouse plasma (in words): 10 μM, 0.24 % DMSO, 0, 5, 15, 30, 60, 120 min
Description: Figure 9 Stability of VEGF‐B167 lipidated peptides in mouse plasma determined by MSMS analysis. The stability of the peptides is shown relative to the control eucatropine. Samples were analysed in triplicate (n=1).
Peptide stability in mouse plasma: Mouse plasma stability tests were performed by Cyprotex. In brief, peptides were incubated with mouse plasma (adjusted for pH 7.4, 37 °C) to a final concentration of 10 μM and incubation volume of 500 μL (0.24 % DMSO). After the incubation period (0, 5, 15, 30, 60, and 120 min), the reactions were stopped by transferring 50 μL of incubate to 150 μL acetonitrile containing internal standard. Plasma proteins were precipitated out by centrifuging at 3,000 rpm for 45 min at 4 °C. The supernatant was diluted 1 : 1 with water and analysed by LC‐MS/MS.

[4] = target: T2, b1 domain of neuropilin‐1 (NRP1‐b1); assay: SPR; NRP1-b1 immobilised on a CM5 chip by random amine coupling; peptides injected for 60 s, 120 or 180 s dissociation; 25 °C; regeneration with 1 M NaCl; kinetic fit, 1:1 model (MGC0122, MGC0123, MGC0124) or two-state model (MGC0171, MGC0172, MGC0173, MGC0174); details: both partners purified
[5] = SPR, immobilised NRP1-b1, 25 °C, two-state model, lipidated peptides, read-out: Second residence time calculated from two‐state model (converted)
[6] = read-out: Residence time (1/kd)
[7] = IC50, cell‐based activity (HUVECs), inhibition of bt‐VEGF‐A165 binding to NRP1, bt-VEGF-A165 4 nM

T3 sequence (O14786 22-923): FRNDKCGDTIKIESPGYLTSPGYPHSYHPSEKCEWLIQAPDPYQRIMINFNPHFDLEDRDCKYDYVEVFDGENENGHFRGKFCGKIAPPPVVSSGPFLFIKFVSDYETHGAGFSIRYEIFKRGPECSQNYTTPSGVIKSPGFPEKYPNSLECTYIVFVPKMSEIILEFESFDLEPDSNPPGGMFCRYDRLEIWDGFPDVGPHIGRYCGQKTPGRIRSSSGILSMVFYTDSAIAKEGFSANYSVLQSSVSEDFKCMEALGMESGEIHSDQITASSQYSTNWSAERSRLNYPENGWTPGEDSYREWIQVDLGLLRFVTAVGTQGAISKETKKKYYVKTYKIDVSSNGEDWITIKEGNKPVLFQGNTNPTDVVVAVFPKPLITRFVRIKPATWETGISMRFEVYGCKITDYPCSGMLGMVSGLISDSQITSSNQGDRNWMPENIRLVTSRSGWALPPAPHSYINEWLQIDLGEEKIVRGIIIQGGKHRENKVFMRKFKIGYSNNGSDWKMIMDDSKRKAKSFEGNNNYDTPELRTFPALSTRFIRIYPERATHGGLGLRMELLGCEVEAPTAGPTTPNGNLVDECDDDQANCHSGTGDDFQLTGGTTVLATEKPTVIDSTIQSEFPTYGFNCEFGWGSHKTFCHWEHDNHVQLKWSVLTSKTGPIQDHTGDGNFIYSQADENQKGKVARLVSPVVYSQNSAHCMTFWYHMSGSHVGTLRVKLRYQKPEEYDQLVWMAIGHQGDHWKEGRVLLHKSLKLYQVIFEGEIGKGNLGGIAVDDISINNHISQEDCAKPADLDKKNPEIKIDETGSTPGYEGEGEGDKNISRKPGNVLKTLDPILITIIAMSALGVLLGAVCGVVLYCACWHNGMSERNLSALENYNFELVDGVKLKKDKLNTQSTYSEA

| Molecule | Kd [1] | Receptor occupancy ([1]; SPR) | residence time [1, 5] | residence time [1, 6] | IC50 [2, 7] | HS (of the inhibition curve of bt‐VEGF‐A165 binding to NRP1) ([2]; bt-VEGF-A165 4 nM) | Stability in mouse plasma (in words) [3] | Kd [4] | further results |
| --- | --- | --- | --- | --- | --- | --- | --- | --- | --- |
| CCCCCCCCCCCCCCCC(=O)NCCCC[C@H](NC(=O)[C@H](CCCNC(=N)N)NC(=O)[C@@H]1CSSC[C@@H]2NC(=O)[C@H](CCCNC(=N)N)NC(=O)[C@H](CC(C)C)NC(=O)[C@H](Cc3ccccc3)NC(=O)[C@H](CO)NC(=O)[C@H](CCCNC(=N)N)NC(=O)[C@H](CCCNC(=N)N)NC(=O)[C@H](CCCNC(=N)N)NC(=O)[C@@H](NC(=O)[C@H](CCCNC(=N)N)NC(C)=O)CSSC[C@H](NC(=O)[C@H]([C@@H](C)O)NC(=O)[C@H](CC(=O)O)NC(=O)[C@@H]3CCCN3C(=O)[C@H](CC(N)=O)NC(=O)[C@H](CC(C)C)NC(=O)[C@H](CCC(=O)O)NC(=O)[C@H](CC(C)C)NC(=O)CNC(=O)[C@H](CCCNC(=N)N)NC(=O)CNC(=O)[C@H](CCC(N)=O)NC2=O)C(=O)N[C@@H](CCCNC(=N)N)C(=O)N1)C(=O)N[C@@H](CC(C)C)C(=O)N[C@@H](CCCNC(=N)N)C(=O)N[C@@H](CCCNC(=N)N)C(=O)O [MGC0173] (Ac-RCRRRSFLRCQGRGLELNPDTCRCRK(Palmitoyl)LRR-OH; disulfide 2-22, 10-24) | 130 ± 30 nM | 10±1% | 2.69 min | 0.0767 min | 2000 nM | 1.8 | maintained much better levels throughout the course of the experiment | – | half-life at 10 μM ([3]; 0.24 % DMSO, 0-120 min): 51 min |
| CCCCCCCCCCCCCCCC(=O)N[C@@H](CCCNC(=N)N)C(=O)N[C@H]1CSSC[C@@H]2NC(=O)[C@H]([C@@H](C)O)NC(=O)[C@H](CC(=O)O)NC(=O)[C@@H]3CCCN3C(=O)[C@H](CC(N)=O)NC(=O)[C@H](CC(C)C)NC(=O)[C@H](CCC(=O)O)NC(=O)[C@H](CC(C)C)NC(=O)CNC(=O)[C@H](CCCNC(=N)N)NC(=O)CNC(=O)[C@H](CCC(N)=O)NC(=O)[C@H](CSSC[C@@H](C(=O)N[C@@H](CCCNC(=N)N)C(=O)N[C@@H](CCCCN)C(=O)N[C@@H](CC(C)C)C(=O)N[C@@H](CCCNC(=N)N)C(=O)N[C@@H](CCCNC(=N)N)C(=O)O)NC(=O)[C@H](CCCNC(=N)N)NC2=O)NC(=O)[C@H](CCCNC(=N)N)NC(=O)[C@H](CC(C)C)NC(=O)[C@H](Cc2ccccc2)NC(=O)[C@H](CO)NC(=O)[C@H](CCCNC(=N)N)NC(=O)[C@H](CCCNC(=N)N)NC(=O)[C@H](CCCNC(=N)N)NC1=O [MGC0174] (Palmitoyl-RCRRRSFLRCQGRGLELNPDTCRCRKLRR-OH; disulfide 2-22, 10-24) | 330 ± 50 nM | 47±3% | 4.46 min | 0.248 min | 319 nM and 300 nM | 1.9 | quickly degraded to low levels after 15 min | – | – |
| CC1CC(OC(=O)C(O)c2ccccc2)CC(C)(C)N1C (centres unmarked) [eucatropine, reference compound] | – | – | – | – | – | – | degraded within literature parameters | – | – |
| CCCCCCCCCCCCCCCC(=O)N[C@@H](CO)C(=O)N[C@H]1CSSC[C@@H]2NC(=O)[C@H]([C@@H](C)O)NC(=O)[C@H](CCCNC(=N)N)NC(=O)[C@H](CCC(=O)O)NC(=O)[C@H](CC(N)=O)NC(=O)[C@H](CC(C)C)NC(=O)[C@H](CCC(=O)O)NC(=O)[C@H](CC(C)C)NC(=O)[C@H](CCC(N)=O)NC(=O)[C@H](CCCNC(=N)N)NC(=O)[C@H](C)NC(=O)[C@H](CCCCN)NC(=O)[C@H](CSSC[C@@H](C(=O)N[C@@H](CC(=O)O)C(=O)N[C@@H](CCCCN)C(=O)N3CCC[C@H]3C(=O)N[C@@H](CCCNC(=N)N)C(=O)N[C@@H](CCCNC(=N)N)C(=O)O)NC(=O)[C@H](CCCNC(=N)N)NC2=O)NC(=O)[C@H](CCCNC(=N)N)NC(=O)[C@H](CO)NC(=O)[C@H](CC(=O)O)NC(=O)[C@H]([C@@H](C)O)NC(=O)[C@H](CC(N)=O)NC(=O)[C@H](CCCCN)NC1=O [MGC0171] (Palmitoyl-SCKNTDSRCKARQLELNERTCRCDKPRR-OH; disulfide 2-21, 9-23) | – | – | 1.58 min | – | – | 1.7 | – | – | residence time ([1]; SPR, immobilised NRP1-b1, 25 °C, 1:1 model, or first residence time of the two-state model, read-out: Residence time (1/kd) (converted)): 0.0883 min; Kd ([1]; SPR, peptide injected 60 s over NRP1-b1 immobilised on CM5 chip, 25 °C, 1:1 model for MGC0122/0123/0124, two-state model for lipidated peptides, read-out: KD, SPR binding to NRP1‐b1): 3320 ± 160 nM; IC50 ([2]; bt-VEGF-A165 4 nM, read-out: IC50, cell‐based activity (HUVECs), inhibition of bt‐VEGF‐A165 binding to NRP1): 1700 nM |
| {6‑heptynoyl}-RCRRRSFLRCQGRGLELNPDTCRCRKLRR (disulfide (positions not given here); also: cyclised by disulphide, Cys pairing not given here) [MGC0123] | – | – | – | – | – | – | – | 0.39 ± 0.09 µM | – |
| Hpt-DRAATPHHRPQPR (reading uncertain; also: printed as Hpt‐DRAATPHHRPQPR, VEGF-B186, human, the C-terminal stretch of the proteolytically processed form, ending in arginine; Only the C-terminal QPR is ordered in the crystal structure; also called VEGF‐B derived peptide MGC0122; source: synthetic peptide; bought: Peptide Protein Research (PeptideSynthetics), >95 % purity by HPLC) [MGC0122] | – | – | – | – | – | – | – | 9.55 ± 0.17 µM | – |
